Test results from publication PMC4433810 (European journal of medicinal chemistry, 2015).

Tests used:
[1] = test system: FR (−) lung cancer cell line A549; test: Cell viability; type: cell-based
[2] = test system: tubulin acetylation (marker of HDAC6 activity) in KB cells; test: Western blot analysis of tubulin acetylation in KB cells; type: cell-based; conditions: 4 h, at IC50 doses and above
[3] = test system: histone H4 acetylation (intracellular marker of HDAC1 inhibition) in KB cells; test: Western blot analysis of histone H4 acetylation in KB cells; type: cell-based; conditions: 24 h
KB cells = test: Folic acid; type: cell-based; conditions: 25 μM of 11e, absence vs presence of folic acid (250 μM); p < 0.01
HDAC1 = HDAC1 (Homo sapiens, UniProt Q13547); test: SAMDI mass spectrometry HDAC activity assay, HDAC1; type: biochemical
HDAC6 = target: T1, HDAC6 (Homo sapiens, UniProt Q9UBN7); test: SAMDI mass spectrometry HDAC activity assay, HDAC6; type: biochemical
T1 sequence (Q9UBN7 1-1215): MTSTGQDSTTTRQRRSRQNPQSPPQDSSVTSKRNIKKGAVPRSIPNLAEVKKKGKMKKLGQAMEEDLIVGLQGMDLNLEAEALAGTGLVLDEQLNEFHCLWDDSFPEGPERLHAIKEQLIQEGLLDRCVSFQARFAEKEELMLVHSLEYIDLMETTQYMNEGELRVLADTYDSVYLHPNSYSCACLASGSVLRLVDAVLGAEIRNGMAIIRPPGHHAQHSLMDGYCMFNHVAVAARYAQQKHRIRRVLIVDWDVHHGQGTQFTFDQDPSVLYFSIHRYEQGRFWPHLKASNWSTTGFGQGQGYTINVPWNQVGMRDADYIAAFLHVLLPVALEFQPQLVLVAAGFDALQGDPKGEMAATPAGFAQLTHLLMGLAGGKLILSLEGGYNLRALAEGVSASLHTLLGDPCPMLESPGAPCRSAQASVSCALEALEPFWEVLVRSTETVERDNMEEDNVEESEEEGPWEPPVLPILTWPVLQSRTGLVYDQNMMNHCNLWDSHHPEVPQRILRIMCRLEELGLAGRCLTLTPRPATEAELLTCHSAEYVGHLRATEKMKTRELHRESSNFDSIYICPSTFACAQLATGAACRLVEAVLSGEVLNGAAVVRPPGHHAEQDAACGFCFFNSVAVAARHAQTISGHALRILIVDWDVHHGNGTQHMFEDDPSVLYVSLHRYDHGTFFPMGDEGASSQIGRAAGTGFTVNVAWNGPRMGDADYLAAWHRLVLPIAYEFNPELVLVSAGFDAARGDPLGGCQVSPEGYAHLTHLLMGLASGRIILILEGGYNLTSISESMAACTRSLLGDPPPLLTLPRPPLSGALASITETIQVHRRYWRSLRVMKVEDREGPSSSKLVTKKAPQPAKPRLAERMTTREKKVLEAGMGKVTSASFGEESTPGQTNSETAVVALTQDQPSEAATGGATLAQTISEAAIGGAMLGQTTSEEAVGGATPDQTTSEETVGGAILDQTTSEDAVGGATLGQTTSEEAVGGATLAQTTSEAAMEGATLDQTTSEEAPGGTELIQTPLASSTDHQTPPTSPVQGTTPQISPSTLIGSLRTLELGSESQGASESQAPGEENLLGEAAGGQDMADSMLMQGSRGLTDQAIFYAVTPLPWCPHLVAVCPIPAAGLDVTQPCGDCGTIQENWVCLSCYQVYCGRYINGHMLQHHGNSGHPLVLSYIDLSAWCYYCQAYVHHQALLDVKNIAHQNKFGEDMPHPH

HDAC8 = target: T2, HDAC8 (Homo sapiens, UniProt Q9BY41); test: SAMDI mass spectrometry HDAC activity assay, HDAC8; type: biochemical
T2 sequence (Q9BY41 1-377): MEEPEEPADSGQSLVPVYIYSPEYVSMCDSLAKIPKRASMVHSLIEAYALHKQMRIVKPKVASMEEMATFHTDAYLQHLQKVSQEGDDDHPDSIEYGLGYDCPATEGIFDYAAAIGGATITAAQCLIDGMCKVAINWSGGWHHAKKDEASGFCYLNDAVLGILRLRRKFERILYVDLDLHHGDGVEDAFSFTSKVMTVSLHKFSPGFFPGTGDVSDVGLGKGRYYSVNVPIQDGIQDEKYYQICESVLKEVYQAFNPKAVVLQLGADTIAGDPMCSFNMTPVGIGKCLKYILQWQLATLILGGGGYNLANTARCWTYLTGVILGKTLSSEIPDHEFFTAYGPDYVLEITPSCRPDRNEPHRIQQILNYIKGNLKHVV

[4] = test system: KB (oral carcinoma) cells, FR (+); test: Cell viability; type: cell-based; conditions: up to 100 μM
[5] = test system: HeLa (cervical carcinoma) cells, FR (+); test: Cell viability; type: cell-based; conditions: up to 100 μM
[6] = SAHA 2 and 20μM, 11d 50 and 100μM, 11e 30 and 100μM

HDAC1, sequence (Q13547 whole entry): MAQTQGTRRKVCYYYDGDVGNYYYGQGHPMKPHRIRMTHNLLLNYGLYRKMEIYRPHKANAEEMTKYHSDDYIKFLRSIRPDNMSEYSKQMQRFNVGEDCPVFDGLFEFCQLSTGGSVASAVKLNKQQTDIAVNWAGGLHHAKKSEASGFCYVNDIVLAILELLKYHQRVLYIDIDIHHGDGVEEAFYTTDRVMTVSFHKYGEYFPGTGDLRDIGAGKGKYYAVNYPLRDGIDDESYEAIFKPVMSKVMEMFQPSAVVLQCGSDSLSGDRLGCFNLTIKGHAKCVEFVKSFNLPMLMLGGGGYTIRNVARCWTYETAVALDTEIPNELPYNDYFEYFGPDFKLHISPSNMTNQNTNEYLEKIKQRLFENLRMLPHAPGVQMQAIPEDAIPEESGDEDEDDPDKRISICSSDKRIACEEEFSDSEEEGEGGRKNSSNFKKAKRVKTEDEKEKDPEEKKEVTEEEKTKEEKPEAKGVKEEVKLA

| Compound | Activity against A549 cells, in words [1] | Acetylated tubulin levels [2] | Histone H4 acetylation [3, 6] | also measured |
| --- | --- | --- | --- | --- |
| Nc1nc2ncc(CNc3ccc(C(=O)NCCCCCCC(=O)NO)cc3)nc2c(=O)[nH]1 [11d, 4-(((2-Amino-4-oxo-3,4-dihydropteridin-6-yl)methyl)amino)-N-(7-(hydroxyamino)-7-oxoheptyl)benzamide] | inactive | increase in acetylated tubulin levels | dose dependent increases in histone H4 acetylation |  |
| Nc1nc2ncc(CNc3ccc(C(=O)NCCCCCCCC(=O)NO)cc3)nc2c(=O)[nH]1 [11e, 4-(((2-Amino-4-oxo-3,4-dihydropteridin-6-yl)methyl)amino)-N-(8-(hydroxyamino)-8-oxooctyl)benzamide] | inactive | increase in acetylated tubulin levels | dose dependent increases in histone H4 acetylation | Effect of folic acid on cytotoxicity (viability of KB cells) (KB cells): reduced the cytotoxicity |
| O=C(CCCCCCC(=O)Nc1ccccc1)NO [SAHA, reference compound] |  | increase in acetylated tubulin levels | dose dependent increases in histone H4 acetylation |  |
| CN1CCc2c(c3ccccc3n2Cc2ccc(C(=O)NO)cc2)C1 [Tubastatin A, reference compound] |  |  |  | Histone H4 acetylation ([3]; 14 μM): significant increase in H4 acetylation |
| Nc1nc2ncc(CNc3ccc(C(=O)N[C@@H](CCC(=O)NO)C(=O)O)cc3)nc2c(=O)[nH]1 [compound 6, 2-(4-(((2-Amino-4-oxo-3,4-dihydropteridin-6-yl)methyl)amino)benzamido)-5-(hydroxyamino)-5-oxopentanoic acid] |  |  |  | HDAC1 inhibition, in words (HDAC1): inactive; HDAC6 inhibition, in words (HDAC6): inactive; HDAC8 inhibition, in words (HDAC8): inactive |
| Nc1nc2ncc(CNc3ccc(C(=O)NO)cc3)nc2c(=O)[nH]1 [compound 7, 4-(((2-Amino-4-oxo-3,4-dihydropteridin-6-yl)methyl)amino)-N-hydroxybenzamide] |  |  |  | Cytotoxicity to KB cells, in words [4]: not cytotoxic; Cytotoxicity to HeLa cells, in words [5]: not cytotoxic; Histone H4 acetylation ([3]; 100 μM, relative to the control): little effect on H4 acetylation |
